Source: patent publication US20150359794A1, “IMPAIRMENT OF THE LARGE RIBOSOMAL SUBUNIT PROTEIN RPL24 BY DEPLETION OR ACETYLATION” (Buck Institute for Research on Aging, priority 2014, published 2015)

Legend:
Format in all cases: cell-based, human
ribosomal protein = assay: Acetyl-lysine western blot of ribopellets (ribosomal protein acetylation); conditions: SKBR3 cells; for ribosomal protein acetylation, including the band that co-migrates with RPL24: western blot of ribopellets (FIG. 4c,d)
Protocol: (§1) Previous studies have shown that pan-inhibitors of class I and II histone deacetylases, like TSA, can rapidly destabilize a number of oncogenic transcripts including HER2 in a cycloheximide-dependent manner (FIG. 9). […] Thus, SKBR3 cells were treated with TSA to evaluate polysome protein acetylation and determine if, similar to RPL24 depletion, histone deacetylase inhibition can affect ribosome assembly dynamics. To detect early (2 h) ribosome or polysome acetylation following histone deacetylase inhibition treatment (1 μM TSA), SKBR3 polysomes were isolated using a discontinuous sucrose gradient as previously described. […] Mass spectrometry studies indicate that 15 ribosomal proteins, 11 large subunit proteins (RPL24 included) and 4 small subunit proteins, underwent at least a two-fold induction in acetylation following 2 h or 6 h TSA treatment (1 μM) (FIG. 4b, FIG. 10a-q).
(§2) Like TSA, the HDAC6 (class IIb)-selective inhibitors, Tubacin and Compound 101, as well as HDAC6 siRNA, all induce tubulin acetylation as expected as well as ribosomal protein acetylation, including the band that co-migrates with RPL24 (FIG. 4c,d, indicated by arrows). […] Thus, the tubulin acetylating effects of pan-histone deacetylase inhibition, known to be mediated by inhibition or knockdown of HDAC6, correspond to the observed ribosome and RPL24 acetylation responses induced by TSA.
(§3) Cells are lysed in RIPA buffer (10 mM Tris-HCL (pH 8.0), 1 mM EDTA, 0.5 mM EGTA, 1% triton X-100, 0.1% sodium deoxycholate, 0.1% SDS, 140 mM NaCl, 20 mM NaF, Complete EDTA-free protease inhibitor tablets (Roche Diagnostics Corp., Basel, Switzerland) and the phosphatase inhibitor cocktail PhosSTOP (Roche)), the latter two as indicated by the manufacturer's protocol. Equal amounts of protein are diluted in 2× sample buffer. Immunoblots on PVDF (Polyvinyldene Fluoride) membranes are blocked with nonfat milk in tris-buffered saline with 0.05% tween-20 (TBST). The following antibodies are incubated with membranes in 5% nonfat milk in TBST: RPL24 (Proteintech, Chicago, Ill.), Cyclin D1, Rack1, RPL4 (Santa Cruz Biotechnology, Santa Cruz, Calif.), NBS1, GAPDH (EMD Millipore Corporation, Chicago, Ill.), Survivin, β-tubulin, acetyl-lysine, eIF6, acetyl-H2B, H2B, (Cell Signaling Technology, Boston, Mass.), acetyl-tubulin, tubulin (Sigma Aldrich (St. Louis, Mo.))
Cells, plated at […] confluency, are treated as indicated. After treatment, cells are treated with 50 μg/ml cycloheximide for 15 minutes. Cells are lysed with a buffer containing 10 mM HEPES, 10 mM KCl, 75 mM NaCl, 10 mM MgCl2, 0.35% NP40, pH 7.9 supplemented with Complete EDTA-free protease inhibitor tablets, PhosSTOP phosphatase inhibitor tablets (Roche) per manufacturer's instructions, 50 μg/ml cycloheximide, SUPERase RNase inhibitors (Life Technologies) per manufacturer's instructions, 15 μM TSA, and 5 mM nicotinimide to inhibit histone deacetylases. Supernatants are collected as cytoplasmic preparations. Where indicated, pellets containing nuclei are resuspended in RIPA buffer (described above). The suspension is spun at 13,000 rpm for 5 min and supernatants are collected as nuclear preparations.
Ribosomes are subsequently isolated from cytoplasmic preparations as described previously. Briefly, lysates are layered on top of a 12% and 33% discontinuous sucrose gradient and spun at 38,000 rpm for 2 h. The resulting polysome pellet is then resuspended, stripped of RNA with acetic acid, and then pelleted with acetone. The pellet is then resuspended in 8 M urea, 2% CHAPS, and 25 mM dithiothreitol (DTT).
FIG. 4: Ribosomal protein acetylation is induced by histone deacetylase inhibition. (a-c) SKBR3 cells were treated with the indicated drugs for the indicated period of time. (d) SKBR3 cells were transfected with the indicated siRNAs and allowed to incubate for 72 hours. (a, c, d). The indicated western blots were performed in ribopellets, total cytoplasmic lysates, or nuclear extracts. […]

tubulin = assay: Western blot for tubulin acetylation in SKBR3 cells; conditions: western blot (FIG. 4c,d)
Source text: as §2, §3
FIG. 4: Ribosomal protein acetylation is induced by histone deacetylase inhibition. (a-c) SKBR3 cells were treated with the indicated drugs for the indicated period of time. (d) SKBR3 cells were transfected with the indicated siRNAs and allowed to incubate for 72 hours. (a, c, d). The indicated western blots were performed in ribopellets, total cytoplasmic lysates, or nuclear extracts. (b) Mass spectrometry was performed on ribopellets as described in materials and methods and in FIG. 6. The fold change in acetylated peptide to total peptide case by TSA treatment is plotted. Only proteins that underwent at least a two-fold induction upon TSA treatment are shown. Error bars represent the standard error of the mean for three biological replicates.

histone H2B = assay: Western blot for histone H2B acetylation in SKBR3 cells; conditions: western blot (FIG. 4c)
Source text: as §2
Cells are lysed in RIPA buffer (10 mM Tris-HCL (pH 8.0), 1 mM EDTA, 0.5 mM EGTA, 1% triton X-100, 0.1% sodium deoxycholate, 0.1% SDS, 140 mM NaCl, 20 mM NaF, Complete EDTA-free protease inhibitor tablets (Roche Diagnostics Corp., Basel, Switzerland) and the phosphatase inhibitor cocktail PhosSTOP (Roche)), the latter two as indicated by the manufacturer's protocol. Equal amounts of protein are diluted in 2× sample buffer. Immunoblots on PVDF (Polyvinyldene Fluoride) membranes are blocked with nonfat milk in tris-buffered saline with 0.05% tween-20 (TBST). […]

HER2 mRNA = assay: Northern blot of HER2 transcript levels; conditions: SKBR3 cells, cycloheximide 50 μg/ml, 6 h with TSA 1 μM
Protocol: as §1
Cells are harvested and RNA is extracted using Trizol (Life Technologies) per manufacturer's protocol. Northern blots are performed as previously described. Briefly, RNA is then electrophoresed into 1% agarose-formaldehyde gels and transferred onto PVDF membranes. Membranes are then hybridized with ^32P-labelled cDNA probes for HER2 or GAPDH, washed, and visualized by autoradiography.
SKBR3 cells were treated with TSA (1 μM, 6 h) and/or cycloheximide (CX, 50 μg/ml, 6 h) or with the respective vehicle controls. […]

Structure (SMILES) | ribosomal protein acetylation, including the band that co-migrates with RPL24 (ribosomal protein) | tubulin acetylation (tubulin) | ribosomal protein acetylation (ribosomal protein; even at a dose of 20 μM (FIG. 4c)) | histone H2B acetylation (histone H2B) | effect on TSA-induced HER2 mRNA decay (HER2 mRNA)
O=C(NO)c1cnc(NC2(c3cccc(F)c3)CCCCC2)nc1 [Compound 101] | induce | induce |  |  | 
Nc1ccccc1NC(=O)c1ccc(CNC(=O)OCc2cccnc2)cc1 [Entinostat] |  | without acetylating tubulin | does not alter | induces | 
O=C(CCCCCCC(=O)Nc1ccc([C@H]2O[C@@H](CSc3nc(-c4ccccc4)c(-c4ccccc4)o3)C[C@@H](c3ccc(CO)cc3)O2)cc1)NO [Tubacin] | induce | induce |  |  | 
C[C@@H]1C[C@@H]([C@H](O)CC2CC(=O)NC(=O)C2)C(=O)[C@@H](C)C1 [cycloheximide] |  |  |  |  | abrogated
